In US20240025887A1, “THIENYL AND CYCLOALKYL AMINOPYRIMIDINE COMPOUNDS AS INHIBITORS OF NUAK KINASES, COMPOSITIONS AND USES THEREOF” (Ontario Institute for Cancer Research (OICR), priority 2021, published 2024):

What was measured:
NUAK2 (h) = molecular target: T1, NUAK2 (h) (Homo sapiens, UniProt Q9H093); assay: NUAK2 enzymatic assay (radiometric, Eurofins); assay type: biochemical
T1 construct: This assay was done radiometrically using full-length, recombinant enzyme; purchased Eurofins
T1 sequence (Q9H093 1-628): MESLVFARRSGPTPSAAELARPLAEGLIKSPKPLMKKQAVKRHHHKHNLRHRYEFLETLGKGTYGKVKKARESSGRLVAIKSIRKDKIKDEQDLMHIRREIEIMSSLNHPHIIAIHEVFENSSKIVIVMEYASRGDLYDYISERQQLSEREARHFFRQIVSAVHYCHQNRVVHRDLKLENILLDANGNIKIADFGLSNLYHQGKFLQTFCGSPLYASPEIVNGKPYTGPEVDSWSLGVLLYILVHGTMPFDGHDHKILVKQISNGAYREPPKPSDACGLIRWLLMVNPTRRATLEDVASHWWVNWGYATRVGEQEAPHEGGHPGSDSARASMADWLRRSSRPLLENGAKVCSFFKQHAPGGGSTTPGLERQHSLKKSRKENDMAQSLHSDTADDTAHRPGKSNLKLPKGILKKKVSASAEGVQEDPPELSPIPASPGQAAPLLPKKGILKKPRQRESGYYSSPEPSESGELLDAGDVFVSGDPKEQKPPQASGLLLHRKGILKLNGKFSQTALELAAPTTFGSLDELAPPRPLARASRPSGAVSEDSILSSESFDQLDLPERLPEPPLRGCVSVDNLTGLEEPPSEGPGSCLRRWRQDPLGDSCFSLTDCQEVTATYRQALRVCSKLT
Method in brief: (§1)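 Radiometric assay with full-length recombinant NUAK2 in 8 mM MOPS pH 7.0, 0.2 mM EDTA, 10 mM magnesium acetate, 300 μM peptide substrate and [33P]-ATP, 40 min at room temperature. Phosphoric acid stop, filter capture, scintillation counting. Aurora A and NUAK1 used as counter screens.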

NUAK1 = molecular target: T2, NUAK1 (Homo sapiens, UniProt O60285); assay: NUAK1 counter screen; assay type: biochemical
T2 sequence (O60285 1-661): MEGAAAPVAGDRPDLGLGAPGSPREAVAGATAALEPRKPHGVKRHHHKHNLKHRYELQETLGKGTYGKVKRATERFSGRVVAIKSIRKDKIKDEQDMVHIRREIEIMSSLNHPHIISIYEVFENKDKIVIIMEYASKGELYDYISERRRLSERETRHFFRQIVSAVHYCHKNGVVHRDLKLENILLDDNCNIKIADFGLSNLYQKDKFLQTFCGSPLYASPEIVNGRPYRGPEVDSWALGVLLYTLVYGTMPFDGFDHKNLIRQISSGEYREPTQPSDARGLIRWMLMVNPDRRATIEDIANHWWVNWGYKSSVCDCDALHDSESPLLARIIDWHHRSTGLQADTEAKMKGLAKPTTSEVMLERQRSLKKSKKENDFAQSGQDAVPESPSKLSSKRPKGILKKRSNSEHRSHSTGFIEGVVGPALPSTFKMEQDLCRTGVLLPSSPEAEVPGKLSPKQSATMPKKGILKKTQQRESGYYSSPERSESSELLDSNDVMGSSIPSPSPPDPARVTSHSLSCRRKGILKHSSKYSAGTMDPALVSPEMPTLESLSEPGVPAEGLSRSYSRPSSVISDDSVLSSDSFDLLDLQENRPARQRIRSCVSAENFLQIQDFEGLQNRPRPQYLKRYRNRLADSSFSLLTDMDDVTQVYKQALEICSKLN
Method in brief: as §1

Aurora A = molecular target: T3, Aurora A (Homo sapiens, UniProt O14965); assay: Aurora A counter screen; assay type: biochemical; details: read-out: AUR-A (IC50)
T3 sequence (O14965 1-403): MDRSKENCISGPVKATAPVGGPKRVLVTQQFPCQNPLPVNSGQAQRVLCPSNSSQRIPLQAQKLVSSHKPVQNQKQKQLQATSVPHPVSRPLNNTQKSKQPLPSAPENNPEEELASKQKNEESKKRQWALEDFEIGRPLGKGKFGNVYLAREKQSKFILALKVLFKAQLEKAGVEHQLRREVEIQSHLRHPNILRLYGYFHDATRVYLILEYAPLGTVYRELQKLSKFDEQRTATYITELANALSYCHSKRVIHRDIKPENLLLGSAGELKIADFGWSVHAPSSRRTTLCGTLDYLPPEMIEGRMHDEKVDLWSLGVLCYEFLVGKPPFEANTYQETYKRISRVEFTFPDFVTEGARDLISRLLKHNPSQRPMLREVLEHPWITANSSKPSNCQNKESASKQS
Method in brief: as §1

[1] = tested on: YAP/TAZ nuclear localization in Clover-YAP expressing MDA-MB-231 cells; assay: Cell-based YAP/TAZ localization assay; details: Clover-YAP MDA-MB-231 cells, live imaging every 10 min for 2 h, FIG. 1
Method: Compounds of the application were tested for their ability to inhibit localization of YAP/TAZ to the nucleus of cells using an assay generally described in Nature Communications, 2018, 9:3510. Live cell imaging of Clover-YAP expressing MDA-MB-231 cells was carried out using a custom WAVE-FX-X1 spinning disc confocal system (Quorum Technologies) with a modified Yokogawa CSU-X1 scanhead on an AxioObserver Z1 inverted microscope (Carl Zeiss) with a x40 NA 1.2 Plan Apochromat (Carl Zeiss) objective. Cells were plated in a 35 mm glass-bottom dish (Mat-Tek, P35G-1.5-14-C) and were maintained in a stage-top incubator at 37° C. and 5% CO2 during imaging. Cells were cultured in phenol-red free RPMI medium (Thermo Fisher Scientific, 11835030) with 5% FBS and 200 nM SiR-DNA (Spirochrom, S0007) was added 1 h prior to imaging to visualize the nuclei. Localization of Clover-YAP was monitored every 10 min for 2 h. Volocity software was used for image acquisition and processing.

[2] = tested on: pSer445 MYPT1 in MDA-MB-231 cells; assay: Cell-based phospho-MYPT1 assay; details: 500 nM, 1 hour, immunoblot, FIG. 2
Method: Compounds with sufficient activity in the biochemical NUAK assay were evaluated in a cell-based assay to confirm their targeted activity. To allow direct assessment of target engagement by NUAK2 inhibitors in cells, an antibody to MYPT1, a NUAK2 substrate, which specifically recognizes the phosphorylated Ser445 epitope in endogenous MYPT1 protein was utilized (Biochem J. 2014 457 (Pt 1): 215-225; Biochem J. 201 461 (Pt 2): 233-245).
MDA-MB-231 cells were incubated in the absence (DMSO) or presence of Compound I-1 (500 nM) for 1 hour. Cell were lysed at 4° C. for 30 mins in RIPA buffer (50 mM tris-HCL, 150 mM NaCl, 1 mM EDTA, 0.1% SDS, 1% NP-40, 0.5% Sodium deoxycholate) containing protease and phosphatase inhibitors. Samples were separated by sodium dodecyl sulfate-polyacrylamide gel electrophoresis (SDS-PAGE), transferred to nitrocellulose and immunoblotted for the detection of pSer^445MYPT1 or ACTIN.

MDA-MB-231 cells = assay: Tumor cell growth inhibition assay (ATPlite); assay type: cell-based; details: Homo sapiens, 120 h, MDA-MB-231 breast tumor cell line, 5 days
Method: MDA-MB-231 cells were seeded into a 384-well plate at 1,000 cells/well in 50 μl medium (Alpha-MEM containing 10% FBS, […] Normocin, Invivogen and […] Gentamycin, Invitrogen). Plates were then incubated overnight for the cells to attach. An HP D300 digital dispenser was used to dose cells with DMSO or test compounds across a 16-point range of concentrations (high dose of 10 uM to low dose of 5 nM). Plates were incubated in a humidified 5% CO2 incubator at 37° C. After 5 days, plates were removed from the incubator and equilibrated to room temperature. An equal volume of ATPlite assay reagent was then added to each well, and samples processed according to manufacturer's instructions (Perkin Elmer). Luminescent signals were then measured using an Envision plate reader equipped with a US-Luminescence detector.

AUR-A (IC50, nM)/NUAK2 (IC50, nM) (NUAK2 (h); NUAK2 selectivity over Aurora-A, ratio of IC50s): 40
IC50 (NUAK2 (h); radiometric, full-length recombinant enzyme): 0.0001 to 0.01 µM
IC50 (NUAK1): 0.011 to 0.1 µM
IC50 (Aurora A): 0.101 to 1 µM
IC50 (MDA-MB-231 cells): 0.195 µM
Structure (SMILES): CN1CCN(c2ccc(Nc3ncc(Cl)c(Nc4ccsc4C(N)=O)n3)c(OC(F)F)c2)CC1 [Compound I-1, 3-((5-chloro-2-((2-(difluoromethoxy)-4-(4-methylpiperazin-1-yl)phenyl)amino)pyrimidin-4-yl)amino)thiophene-2-carboxamide]
inhibition of YAP/TAZ nuclear localization [1]: significant improvement in inhibition of YAP/TAZ nuclear localization
formation of cellular p-MYPT1 (pSer445) [2]: inhibits the formation of cellular p-MYPT1
